Source: BigSolDB 2.1

Q: With `NCC1(CC(=O)O)CCCCC1.O` as the compound, how does the solubility (mole fraction) (in water, 283.15 K) read?
A: 0.0093

Q: What about the solubility (mole fraction) (in water, 288.15 K) of the same compound?
A: 0.0106

Q: And the solubility (mole fraction) (in water, 293.15 K)?
A: 0.0116

Q: What about the solubility (mole fraction) (in water, 298.15 K) of the same compound?
A: 0.0124

Q: And the solubility (mole fraction) (in water, 303.15 K)?
A: 0.0137

Q: And the solubility (mole fraction) (in water, 308.15 K)?
A: 0.0152

Q: And the solubility (mole fraction) (in water, 313.15 K)?
A: 0.0168

Q: What about the solubility (mole fraction) (in water, 318.15 K) of the same compound?
A: 0.0189

Q: And the solubility (mole fraction) (in water, 323.15 K)?
A: 0.0222

Q: Which results are given for `NCC1(CC(=O)O)CCCCC1`?
A: solubility (mole fraction) (in ethanol, 283.15 K): 0.00134; solubility (mole fraction) (in ethanol, 288.15 K): 0.00153; solubility (mole fraction) (in ethanol, 293.15 K): 0.0017; solubility (mole fraction) (in ethanol, 298.15 K): 0.00187; solubility (mole fraction) (in ethanol, 303.15 K): 0.00224; solubility (mole fraction) (in ethanol, 308.15 K): 0.00243; solubility (mole fraction) (in ethanol, 313.15 K): 0.00267; solubility (mole fraction) (in ethanol, 318.15 K): 0.003; solubility (mole fraction) (in ethanol, 323.15 K): 0.00329; solubility (mole fraction) (in methanol, 283.15 K): 0.00718; solubility (mole fraction) (in methanol, 288.15 K): 0.00795; solubility (mole fraction) (in methanol, 293.15 K): 0.00878; solubility (mole fraction) (in methanol, 298.15 K): 0.00943; solubility (mole fraction) (in methanol, 303.15 K): 0.0107; solubility (mole fraction) (in methanol, 308.15 K): 0.0117; solubility (mole fraction) (in methanol, 313.15 K): 0.0127; solubility (mole fraction) (in methanol, 318.15 K): 0.014; solubility (mole fraction) (in methanol, 323.15 K): 0.016
